Measurements: patent US11220503B2, “Phthalazine derivatives, preparation method, pharmaceutical composition and usage thereof” (Shanghai SIMR Biotech Co., Ltd., priority 2015, dated 2022)
Read-outs that look alike come from different tables or passages of the source.

Assays:
[1] = Tissue distribution of the compounds (brain/plasma); assay type: in vivo; settings: brain and plasma, po; rat, 10 mg/kg p.o. in 50% PEG400, one hour; read-out: Brain/Plasma ratio
Procedure: The distribution ratio of blood brain tissue was calculated by comparing the concentration of compound in rat plasma and brain tissue. The experimental animals were divided into two groups, the plasma group and the brain group, each with three. Rats were administed compounds in 50% PEG400 p.o. at a dose of 10 mg compound to be tested/kg. One hour later, plasma and brain samples were taken. Concentrations of compounds in brain and plasma were detected using LC-MS/MS-A (Triple Quad 5500) assay and analyzed using Phoenix WinNonlin.

α5β3γ2 receptor = target: T1, α5β3γ2 receptor (Homo sapiens, UniProt P18507+P31644); assay: Cell level screening: whole cell patch clamp, inverse agonist efficacy; assay type: cell-based; settings: for inverse agonism efficacy of the compound/α5IA inverse agonism efficacy: ratio to α5IA, compound 100 nM
T1 construct: expressed in transfected cells; host or cells: HEK-293 (stably transfected)

[2] = HEK293, compound 100 nM, GABA 0.05-0.1 μM, HEK293 α5β3γ2, clamped at −60 mV, (Ipost-Ipre)*100/Ipre, read-out: inverse agonism efficacy(%)

T1 sequence (P31644 32-462): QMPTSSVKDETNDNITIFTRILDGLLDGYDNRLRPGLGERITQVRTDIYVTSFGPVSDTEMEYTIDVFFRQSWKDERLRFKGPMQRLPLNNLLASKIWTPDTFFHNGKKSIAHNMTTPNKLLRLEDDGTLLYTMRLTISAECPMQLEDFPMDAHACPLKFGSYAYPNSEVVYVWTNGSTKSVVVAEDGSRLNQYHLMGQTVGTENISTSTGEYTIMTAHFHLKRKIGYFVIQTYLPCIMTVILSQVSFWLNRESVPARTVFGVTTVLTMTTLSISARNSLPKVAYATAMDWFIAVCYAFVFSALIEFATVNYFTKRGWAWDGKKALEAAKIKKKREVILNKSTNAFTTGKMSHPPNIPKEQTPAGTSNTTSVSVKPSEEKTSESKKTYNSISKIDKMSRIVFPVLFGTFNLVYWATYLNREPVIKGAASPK
T1 sequence (P28472 26-473 isoform P28472-2 partner limits assumed): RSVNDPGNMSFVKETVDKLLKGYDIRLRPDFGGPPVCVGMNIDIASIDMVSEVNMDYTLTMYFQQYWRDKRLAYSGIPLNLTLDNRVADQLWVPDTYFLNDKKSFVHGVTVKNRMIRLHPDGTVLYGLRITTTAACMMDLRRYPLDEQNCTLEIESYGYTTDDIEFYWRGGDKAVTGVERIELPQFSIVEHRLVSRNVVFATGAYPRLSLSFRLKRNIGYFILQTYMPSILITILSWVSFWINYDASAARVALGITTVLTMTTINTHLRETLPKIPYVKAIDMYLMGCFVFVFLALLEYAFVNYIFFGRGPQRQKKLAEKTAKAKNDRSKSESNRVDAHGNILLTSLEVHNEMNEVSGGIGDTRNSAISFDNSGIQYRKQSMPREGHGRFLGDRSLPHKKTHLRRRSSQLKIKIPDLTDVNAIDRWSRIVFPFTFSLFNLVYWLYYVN
T1 sequence (P18507 40-475): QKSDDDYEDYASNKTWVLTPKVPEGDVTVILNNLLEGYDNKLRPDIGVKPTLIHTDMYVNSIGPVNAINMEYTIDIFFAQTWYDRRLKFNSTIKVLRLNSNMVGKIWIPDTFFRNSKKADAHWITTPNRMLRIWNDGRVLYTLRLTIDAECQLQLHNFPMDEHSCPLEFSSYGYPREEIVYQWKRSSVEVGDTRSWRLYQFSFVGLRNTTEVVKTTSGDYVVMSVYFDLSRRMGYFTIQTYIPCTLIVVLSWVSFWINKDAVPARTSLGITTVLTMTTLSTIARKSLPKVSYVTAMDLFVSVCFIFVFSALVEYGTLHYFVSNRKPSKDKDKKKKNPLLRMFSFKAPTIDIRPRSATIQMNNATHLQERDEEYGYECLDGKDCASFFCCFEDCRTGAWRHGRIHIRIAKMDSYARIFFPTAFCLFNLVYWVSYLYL

Row | Kp at 1 h [1] | inhibition at 0.1 µM (α5β3γ2 receptor; [2]) | inhibition at 0.01 µM (α5β3γ2 receptor; dose-efficacy, Con. 10 nM, single replicates, read-out: Inverse agonism-Efficacy) | inhibition at 0.05 µM (α5β3γ2 receptor; dose-efficacy, Con. 50 nM, single replicates, read-out: Inverse agonism-Efficacy) | inhibition at 0.1 µM (α5β3γ2 receptor; dose-efficacy, Con. 100 nM, single replicates, read-out: Inverse agonism-Efficacy) | inhibition at 1 µM (α5β3γ2 receptor; dose-efficacy, Con. 1000 nM, single replicates, read-out: Inverse agonism-Efficacy) | inverse agonism efficacy of the compound/α5IA inverse agonism efficacy (α5β3γ2 receptor) | SMILES
1 | < 0.01 | 24.8% | 25.5% | 40% | 45.8% | 39.1% | 1.1 | CCNC(=O)c1ccc(COc2nn3c(-c4cc(C)on4)nnc3c3ccccc23)nc1 [Compound 07, N-ethyl-6-(((3-(5-methylisoxazol-3-yl)-[1,2,4]triazolo[3,4-a]phthalazin-6-yl)oxy)methyl)nicotinamide]
2 | < 0.01 | 34% |  |  |  |  | 1.508 | COCCNC(=O)c1ccc(COc2nn3c(-c4cc(C)on4)nnc3c3ccccc23)nc1 [Compound 08, N-(2-methoxyethyl)-6-(((3-(5-methylisoxazol-3-yl)-[1,2,4]triazolo[3,4-a]phthalazin-6-yl)oxy)methyl)nicotinamide]
